Experimental data reported in ChEMBL document CHEMBL4715829, “Heterodimeric Rifampicin-Tobramycin conjugates break intrinsic resistance of Pseudomonas aeruginosa to doxycycline and chloramphenicol in vitro and in a Galleria mellonella in vivo model” (Eur J Med Chem, 2019).
In brackets after ≈: the same amount, converted by molar mass.

Legend:
Enterococcus faecalis = experiment: Antibacterial activity against Enterococcus faecalis ATCC 29212 assessed as reduction in bacterial growth incubated for 18 hrs by broth microdilution assay; type: functional
Escherichia coli = experiment: Antibacterial activity against Escherichia coli CAN-ICU 63074 (AMK 32) assessed as reduction in bacterial growth incubated for 18 hrs by broth microdilution assay; type: functional
Pseudomonas aeruginosa [1] = experiment: Antibacterial activity against gentamicin-resistant Pseudomonas aeruginosa CAN-ICU 62308 assessed as reduction in bacterial growth incubated for 18 hrs by broth microdilution assay; type: functional
Acinetobacter baumannii = experiment: Antibacterial activity against Acinetobacter baumannii CAN-ICU 63169 assessed as reduction in bacterial growth incubated for 18 hrs by broth microdilution assay; type: functional
Pseudomonas aeruginosa [2] = experiment: Antibacterial activity against Pseudomonas aeruginosa PAO1 assessed as reduction in bacterial growth by measuring trimethoprim MIC at <=10 uM in presence of trimethoprim incubated for 18 hrs by broth microdilution assay based checkerboard assay (reference value: 64 microg/ml); type: functional; conditions: dose microM <=10
Pseudomonas aeruginosa [3] = experiment: Antibacterial activity against Pseudomonas aeruginosa PAO1 assessed as reduction in bacterial growth by measuring chloramphenicol MIC at <=[…] uM in presence of chloramphenicol incubated for 18 hrs by broth microdilution assay based checkerboard assay (reference value: […] microg/ml); type: functional; conditions: dose microM <=10
Pseudomonas aeruginosa [4] = experiment: Antibacterial activity against Pseudomonas aeruginosa PAO1 assessed as reduction in bacterial growth by measuring erythromycin MIC at <=10 uM in presence of erythromycin incubated for 18 hrs by broth microdilution assay based checkerboard assay (reference value: 256 microg/ml); type: functional; conditions: dose microM <=10
Pseudomonas aeruginosa [5] = experiment: Antibacterial activity against Pseudomonas aeruginosa PAO1 assessed as reduction in bacterial growth by measuring pleuromutilin MIC at <=10 uM in presence of pleuromutilin incubated for 18 hrs by broth microdilution assay based checkerboard assay (reference value: 512 microg/ml); type: functional; conditions: dose microM <=10
Pseudomonas aeruginosa [6] = experiment: Antibacterial activity against Pseudomonas aeruginosa PAO1 assessed as fractional inhibitory concentration index in presence of Linezolid incubated for 18 hrs by broth microdilution assay based checkerboard assay; type: functional
Pseudomonas aeruginosa [7] = experiment: Antibacterial activity against Pseudomonas aeruginosa PAO1 assessed as fractional inhibitory concentration index in presence of Trimethoprim incubated for 18 hrs by broth microdilution assay based checkerboard assay; type: functional
Pseudomonas aeruginosa [8] = experiment: Antibacterial activity against Pseudomonas aeruginosa PAO1 assessed as fractional inhibitory concentration index in presence of Aztreonam incubated for 18 hrs by broth microdilution assay based checkerboard assay; type: functional
Pseudomonas aeruginosa [9] = experiment: Antibacterial activity against Pseudomonas aeruginosa PAO1 assessed as fractional inhibitory concentration index in presence of Nitrofurantoin incubated for 18 hrs by broth microdilution assay based checkerboard assay; type: functional
[10] = Hemolytic activity in porcine erythrocyte at 1024 ug/ml incubated for 1 hr; type: ADME, cell-based, Sus scrofa; conditions: pig, porcine erythrocytes, at 1024 µg/mL, read-out: Activity
Pseudomonas aeruginosa [11] = experiment: Antibacterial activity against Pseudomonas aeruginosa 101885 assessed as reduction in bacterial growth incubated for 18 hrs by broth microdilution assay; type: functional
Pseudomonas aeruginosa [12] = experiment: Antibacterial activity against Pseudomonas aeruginosa 259-96918 assessed as reduction in bacterial growth incubated for 18 hrs by broth microdilution assay; type: functional
Pseudomonas aeruginosa [13] = experiment: Antibacterial activity against Pseudomonas aeruginosa 101243 assessed as reduction in bacterial growth incubated for 18 hrs by broth microdilution assay; type: functional
Pseudomonas aeruginosa [14] = experiment: Antibacterial activity against Pseudomonas aeruginosa 264-101354 assessed as fractional inhibitory concentration incubated for 18 hrs in presence of doxycycline by broth microdilution assay; type: functional
Pseudomonas aeruginosa [15] = experiment: Antibacterial activity against Pseudomonas aeruginosa 264-101354 assessed as fractional inhibitory concentration incubated for 18 hrs in presence of chloramphenicol by broth microdilution assay; type: functional
Pseudomonas aeruginosa [16] = experiment: Antibacterial activity against Pseudomonas aeruginosa 100036 assessed as fractional inhibitory concentration incubated for 18 hrs in presence of doxycycline by broth microdilution assay; type: functional

SMILES	MIC (Enterococcus faecalis) [µg/mL]	MIC (Escherichia coli) [µg/mL]	MIC (Pseudomonas aeruginosa [1]) [µg/mL]	MIC (Acinetobacter baumannii) [µg/mL]	MIC (Pseudomonas aeruginosa [2]) [µg/mL]	MIC (Pseudomonas aeruginosa [3]) [µg/mL]	MIC (Pseudomonas aeruginosa [4]) [µg/mL]	MIC (Pseudomonas aeruginosa [5]) [µg/mL]	fractional inhibitory concentration index (FICI) (Pseudomonas aeruginosa [6])	fractional inhibitory concentration index (FICI) (Pseudomonas aeruginosa [7])	fractional inhibitory concentration index (FICI) (Pseudomonas aeruginosa [8])	fractional inhibitory concentration index (FICI) (Pseudomonas aeruginosa [9])	hemolysis at 1 h, 1024 ug/ml [10] [%]	MIC (Pseudomonas aeruginosa [11]) [µg/mL]	MIC (Pseudomonas aeruginosa [12]) [µg/mL]	MIC (Pseudomonas aeruginosa [13]) [µg/mL]	FIC (Pseudomonas aeruginosa [14])	FIC (Pseudomonas aeruginosa [15])	FIC (Pseudomonas aeruginosa [16])
CO[C@H]1/C=C/O[C@@]2(C)Oc3c(C)c(O)c4c(O)c(c(/C=N/N5CCN(Cc6cn(CCCCO[C@@H]7[C@@H](O[C@H]8O[C@H](CO)[C@@H](O)[C@H](N)[C@H]8O)[C@H](N)C[C@H](N)[C@H]7O[C@H]7O[C@H](CN)[C@@H](O)C[C@H]7N)nn6)CC5)c(O)c4c3C2=O)NC(=O)/C(C)=C\C=C\[C@H](C)[C@H](O)[C@@H](C)[C@@H](O)[C@@H](C)[C@H](OC(C)=O)[C@@H]1C.O=C(O)C(F)(F)F.O=C(O)C(F)(F)F.O=C(O)C(F)(F)F.O=C(O)C(F)(F)F.O=C(O)C(F)(F)F	> 32	> 32	> 32	> 32	64	8	128	512	1.03	1.03	1.03	1	< 2	256	> 128	256			
CO[C@H]1/C=C/O[C@@]2(C)Oc3c(C)c(O)c4c(O)c(c(/C=N/N5CCN(C)CC5)c(O)c4c3C2=O)NC(=O)/C(C)=C\C=C\[C@H](C)[C@H](O)[C@@H](C)[C@@H](O)[C@@H](C)[C@H](OC(C)=O)[C@@H]1C [RIFAMPIN]	1 (≈ 1.22 µM)	16 (≈ 19.4 µM)	32 (≈ 38.9 µM)	8 (≈ 9.72 µM)										32 (≈ 38.9 µM)	16 (≈ 19.4 µM)	4 (≈ 4.86 µM)	0.25	0.5	0.25
